For one series, the system named is CDK12 and CDK13 proteins. Nature of the series: Degradation activity on CDK12/13 in 22RV1 cells (Western Blot). Format: cell-based. The following applies: 22RV1 cells; for degradation of CDK12 and CDK13 proteins: 100 nM, 6 h (FIG. 5); for degradation of CDK12 and CDK13 protein levels in cells: 500 nM, 6 hours, WB (FIG. 4); for dose dependence of degradation of CDK12 and CDK13 proteins: different concentrations, 6 h (FIG. 4B, FIG. 5). As to the method: Experimental methods: The cell line, 22RV1 cell line was purchased from the American Type Culture Collection (ATCC). Conventional Western Blot was used for detection as follows: 22RV1 cells were seeded in a certain number in a 12-well plate, and cultured overnight in an incubator in an adherent manner. […] The cells were lysed with a lysis buffer, and samples were collected. Then, an appropriate amount of the samples was taken for SDS-PAGE electrophoresis. After electrophoresis, the proteins were transferred to nitrocellulose membranes using a semi-dry electro-transfer system. The nitrocellulose membrane was placed in a blocking solution (5% skim milk powder diluted in TBS containing 0.1% Tween 20) and blocked at room temperature for 2 h. The membranes were then placed in a primary antibody solution (1: 1000 diluted in TBS containing 0.1% Tween 20), respectively, and incubated at 4°C overnight. The cells were washed three times with TBS containing 0.1% Tween 20, each time for 15 min. The membrane was placed in a secondary antibody solution (horseradish peroxidase-labeled goat anti-rabbit IgG, diluted at 1:1000 in TBS containing 0.1% Tween 20) and reacted at room temperature for 1 h. After washing the membrane three times as above, the membrane was developed with ECL plus reagent and photographed using Amersham Imager 600 system.
For orientation: Immunoblotting shows a protein as a band on a membrane.

The test system of series [1] is prostate cancer VCap cells. Nature of the series: Proliferation-inhibiting activity on VCap cells (CellTiter-Glo). Format: cell-based. The following applies: Homo sapiens; VCap cell line, CellTiter-Glo (FIG. 6). As to the method: The cell proliferation-inhibiting activity of the compounds was determined using the CellTiter-Glo Luminescent Cell Viability Assay (Promega, Madison, WI). The cells were seeded in a 96-well plate in their respective culture media and incubated at 37°C in a 5% CO2 incubator. After overnight incubation, serial dilutions of the compounds were prepared and added to the 96-well plate. A volume of CellTiter-Glo reagent equal to the volume of the cell culture medium present in each well was added (e.g., 100 microliters of the reagent was added to 100 microliters of the culture medium for the cells in the 96-well plate). The contents were mixed on an orbital shaker for 2 min to induce cell lysis. The 96-well plate was incubated at room temperature for 10 minutes to stabilize a luminescent signal. Luminescence was recorded: the luminescence signal of each well was acquired using an Infinite M1000 Pro plate reader (Tecan, Zürich, Switzerland), and the data were analyzed using GraphPad Prism software (GraphPad Software Inc, La Jolla, CA).
(ATP-based viability assays read luminescence as a measure of living cells.)

The nature of series [2]: Pharmacokinetics and bioavailability test in rats (Example 60). The series is classed as in vivo. The following applies: SD rats; for F: bioavailability calculated from AUC; for oral pharmacokinetic properties: summary in words of Tables 2-6; for Cmax / Tmax / clearance / half-life: rat. As to the method: Pharmacokinetics and bioavailability tests in rats. SD rats were given a single oral (10 mg/kg), intravenous (2.5 mg/kg) and intraperitoneal (10 mg/kg) dose, followed by animal blood sample collection at appropriate time points. Heparin was added for anticoagulation, and the samples were centrifuged at 8000 rpm for 6 min. The supernatant was collected and stored at -20°C for HPLC-MS analysis. The blood samples underwent protein precipitation with acetonitrile at 12 000 rpm * 10 min, and the supernatant was used for HPCL-MS analysis. The data underwent parameter fitting with DAS2.0, to obtain compartmental model and non-compartmental model parameters, respectively. The oral bioavailability of the compounds was calculated based on the area under the plasma concentration-time curve (AUC) data. […] Table 2. Pharmacokinetic experimental results of compounds YJZ9069 and YJZ1102

Where [3] appears, read: Sprague-Dawley, plasma, IV 2.5 mg/kg.
The mark [4] stands for this setting: Sprague-Dawley, plasma, PO 10 mg/kg.

Broadly, the IC50 is the concentration that inhibits the measured activity by half. One may read the Cmax as the peak of the concentration-time curve. As usually defined, the Tmax is the time from dosing to the highest level. As usually defined, the clearance is the rate of elimination divided by the concentration. A lower clearance goes with a low capacity for elimination. The term half-life denotes how long it takes for the measured level to halve. A lower half-life goes with rapid decline. As for `O=C1CCC(N2C(=O)c3ccc(N4CCC(N5CCN(c6ccc(N(C(=O)NCc7ccccc7F)[C@H]7CC[C@H](Nc8ncc9ccccc9n8)CC7)cc6)CC5)CC4)cc3C2=O)C(=O)N1` (some centres unmarked) [YJZ1203], in the series with CDK12 and CDK13 proteins, the “degradation of CDK12 and CDK13 proteins” value is “almost completely degrade”; the “degradation of CDK12 and CDK13 protein levels in cells” value (“degradation … in cells” for short) is reported as “effectively degrade”; the “dose dependence of degradation of CDK12 and CDK13 proteins” value (“dose dependence” below) is “dose-dependent manner”. The compound further showed a concentration for half-maximal inhibition (IC50) in series [1] of 18.8 nM. For the same compound, the F in series [2] (PO 10 mg/kg) is reported as 16.95%. In addition, the oral pharmacokinetic properties result in series [2] is on record as “excellent”. Besides, in series [2] (setting [3]), the peak level (Cmax) was 3060 ng/mL, the time of peak concentration (Tmax) was 0.08 h, the clearance was 5.22 mL/min/kg and the half-life is 6.19 h. Moreover, in series [2] (setting [4]), the peak concentration (Cmax) is 382 ng/mL, the Tmax amounted to 6.7 h and the half-life is 6.4 h.

As for `O=C1CCC(N2C(=O)c3ccc(N4CCC(CN5CCN(c6ccc(N(C(=O)NCc7ccccc7)[C@H]7CC[C@H](Nc8ncc9ccccc9n8)CC7)cc6)CC5)CC4)cc3C2=O)C(=O)N1` (some centres unmarked) [YJZ1097, 3-benzyl-1-(4-(4-((1-(2-(2,6-dioxopiperidin-3-yl)-1,3-dioxoisoindole-5-yl)piperidin-4-yl)methyl)piperazin-1-yl)phenyl)-1-((1r,4r)-4-(quinazolin-2-ylamino)cyclohexyl)urea], in the series with CDK12 and CDK13 proteins, the “degradation of CDK12 and CDK13 proteins” value is “almost completely degrade”; the “degradation … in cells” value was “effectively degrade”; the “dose dependence” value was “dose-dependent manner”. Besides, in series [1], the IC50 was 3.93 nM. Further, the F in series [2] (PO 10 mg/kg) is on record as 23.89%. Besides, the oral pharmacokinetic properties result in series [2] is “excellent”. In addition, in series [2] (setting [3]), the Cmax was 2490 ng/mL, the Tmax is 0.08 h, the clearance was 3.12 mL/min/kg and the half-life was 13.8 h. Also, in series [2] (setting [4]), the peak concentration (Cmax) was 593 ng/mL, the time of peak concentration (Tmax) was determined as 6.7 h and the half-life is 15.2 h.

As for `O=C1CCC(N2C(=O)c3ccc(N4CCC(N5CCN(c6ccc(N(C(=O)NCc7ccccc7)[C@H]7CC[C@H](Nc8ncc9ccccc9n8)CC7)cn6)CC5)CC4)cc3C2=O)C(=O)N1` (some centres unmarked) [YJZ1205], in the series on CDK12 and CDK13 proteins, the “degradation of CDK12 and CDK13 proteins” value is given as “almost completely degrade”; the “degradation … in cells” value is “effectively degrade”; the “dose dependence” value is listed as “dose-dependent manner”. Further, the IC50 in series [1] is 13.5 nM. For the same compound, the F in series [2] (PO 10 mg/kg) was 15.87%. Moreover, the oral pharmacokinetic properties result in series [2] is “excellent”. Further, in series [2] (setting [3]), the peak level (Cmax) was 3620 ng/mL, the Tmax amounted to 0.08 h, the clearance is 3.93 mL/min/kg and the half-life was 3.81 h. For the same compound, in series [2] (setting [4]), the Cmax was 581 ng/mL, the time of peak concentration (Tmax) is 4.7 h and the half-life is 4.2 h.

As to `O=C1CCC(N2C(=O)c3ccc(N4CC(CN5CCN(c6ccc(N(C(=O)NCc7ccccc7)[C@H]7CC[C@H](Nc8ncc9ccccc9n8)CC7)cc6)CC5)C4)cc3C2=O)C(=O)N1` (some centres unmarked) [YJZ1102], in the series on CDK12 and CDK13 proteins, the “degradation … in cells” value is given as “effectively degrade”. The compound also displayed a half-inhibitory concentration (IC50) in series [1] of 16.3 nM. Further, the F in series [2] (IP 10 mg/kg) is on record as 94.15%. In addition, in series [2] (PO 10 mg/kg), the F is reported as 17.28%. In addition, the oral pharmacokinetic properties entry in series [2] is “excellent”. In series [2] (in vivo, IP 10 mg/kg), the highest concentration (Cmax) stood at 662 ng/mL, the Tmax was determined as 6.67 h and the half-life was 26.4 h. In series [2] (in vivo, IV 2.5 mg/kg), the highest level (Cmax) was 2200 ng/mL, the time of peak concentration (Tmax) was 0.08 h, the clearance is 3.32 mL/min/kg and the half-life was 10.7 h. In addition, in series [2] (in vivo, PO 10 mg/kg), the highest concentration (Cmax) was found to be 148 ng/mL, the Tmax was 6 h and the half-life was 10.4 h.

On to `O=C1CCC(N2C(=O)c3ccc(N4CCN(C5CCN(c6ccc(N(C(=O)NCc7ccccc7)[C@H]7CC[C@H](Nc8ncc9ccccc9n8)CC7)cc6)CC5)CC4)cc3C2=O)C(=O)N1` (some centres unmarked) [YJZ1202, 3-benzyl-1-(4-(4-(2-(2,6-dioxopiperidin-3-yl)-1,3-dioxoisoindole-5-yl)piperazin-1-yl)piperidin-1-ylphenyl)-1-((1r,4r)-4-(quinazolin-2-ylamino)cyclohexyl)urea], for which, in the series with CDK12 and CDK13 proteins, the “degradation of CDK12 and CDK13 proteins” value is recorded as “almost completely degrade”; the “degradation … in cells” value was “effectively degrade”; the “dose dependence” value is reported as “dose-dependent manner”. In series [1], the half-maximal inhibitory concentration (IC50) amounted to 17.5 nM. In addition, in series [2] (PO 10 mg/kg), the F is reported as 13.51%. Besides, in series [2], the oral pharmacokinetic properties result was “excellent”. Also, in series [2] (in vivo, IV 2.5 mg/kg), the Cmax worked out at 2310 ng/mL, the Tmax stood at 0.08 h, the clearance is 6.7 mL/min/kg and the half-life is 4.13 h. In series [2] (in vivo, PO 10 mg/kg), the maximum concentration (Cmax) was found to be 291 ng/mL, the Tmax came out at 5.33 h and the half-life is 3.76 h.

For `O=C1CCC(N2C(=O)c3ccc(N4CCC(N5CCN(c6ccc(N(C(=O)NCc7ccccc7)[C@H]7CC[C@H](Nc8ncc9ccccc9n8)CC7)cc6F)CC5)CC4)cc3C2=O)C(=O)N1` (some centres unmarked) [YJZ1204, 3-benzyl-1-(4-(4-(1-(2-(2,6-dioxopiperidin-3-yl)-1,3-dioxoisoindole-5-yl)piperidin-4-yl)-piperazin-1-yl)-3-fluorophenyl)-1-((1r,4r)-4-(quinazolin-2-ylamino)cyclohexyl)urea], in the series on CDK12 and CDK13 proteins, the “degradation of CDK12 and CDK13 proteins” value is “almost completely degrade”; the “degradation … in cells” value was “effectively degrade”; the “dose dependence” value is given as “dose-dependent manner”. In series [1], this compound had an IC50 of 23.3 nM. Besides, in series [2] (PO 10 mg/kg), the F is listed as 30.13%. In addition, the oral pharmacokinetic properties entry in series [2] is on record as “excellent”. Moreover, in series [2] (setting [3]), the peak level (Cmax) was 2290 ng/mL, the Tmax turned out to be 0.08 h, the clearance was 6.01 mL/min/kg and the half-life was 8.54 h. Further, in series [2] (setting [4]), the Cmax was 457 ng/mL, the Tmax is 7.33 h and the half-life was 10.8 h.

The values are drawn from patent publication EP4671239A1, “ARYL SUBSTITUENT-CONTAINING DEGRADATION AGENT FOR CDK12/13, PREPARATION METHOD THEREFOR, AND PHARMACEUTICAL COMPOSITION AND USE THEREOF” (Shanghai Institute of Organic Chemistry, Chinese Academy of …, priority 2023, dated 2024).
